According to patent US8791163B2 (McGill University, priority 2006, dated 2014):
Several values for one entry are separate records, joined by “and”; a condition that tells them apart may be missing. Equal entries are not always repeated.

Key:
[1] = tested on: Male rats (Sprague-Dawley); experiment: EEG and EMG sleep recordings (slow wave sleep, REM sleep, wakefulness); type: in vivo, rat; details: 5b 40 mg/kg s.c.; individual rats 1-11
Protocol: Male rats (Sprague-Dawley) weighing approximately 300-340 g were used for surgical implantation of electroencephalogram (EEG) and electromyogram (EMG) electrodes. Following the recovery from surgery, the animals were housed separately in cages and kept on a 12-hour light/dark cycle (12 h light-12 h dark, 7:30 AM lights on) at a controlled temperature (21° C.). The rats had free access to food and water ad libitum.
Rats were anaesthetized using equithesin (425 mg chloral hydrate, 1 ml 100% ethanol, 98 mg pentobarbitone, 213 mg magnesium sulphate and 3 ml propylene glycol, sterile water per 10 ml of solution; 1 ml per 300 g body weight i.p.) and placed in a stereotactic frame. The skull was exposed and carefully cleaned. Two stainless-steel epidural electrodes were implanted for the registration of the EEG under stereotactic control, through 1.5 mm burr holes at the coordinates corresponding to the right parietal-occipital cortex (AP=−2 mm L=3 mm; AP=−7 mm L=3 mm) and the left parietal-occipital cortex (AP=−4.5 mm L=3 mm) according to the atlas by Paxinos (The Rat Brain in Stereotaxic Coordinates, Academic Press, 1995). Three stainless steel wire electrodes, isolated except for the last few millimeters, were implanted into the neck muscles (two bilaterally and one in the middle) for the monitoring of the EMG. The EEG epidural electrodes and the EMG wires were fitted to a six-pin female connector. For fixation to the skull, the wires and connector were covered with dental acrylic (Coltene/Whaledent Inc. USA). The animals were allowed to recover from the surgery for at least 3-4 days.
Twenty-four hours (24 h) following the surgery, the rats were placed in the recording room from noon to 9:00 PM, for 3-4 days. The rats were connected to the 6-flat cable (3M), in a freely-moving manner, from 6:00 PM to 9:00 PM for habituation. No recordings were performed at this time, however, the tolerance to the cable and the sleep behavior were observed.
Following 3-4 days of habituation, the rats received the injection of a vehicle (DMSO/saline 7:3, 0.2 ml s.c.) at 6:00 PM and the recording was carried out until 9:00 PM. On the following day the rats received diazepam (2 mg/kg, s.c.) at 6:00 PM and the recording was performed until 9:00 PM. Four days following the injection of diazepam, the rat received 5b (40 mg/kg s.c.) and the recording also performed from 6 to 9 PM.
For each experiment, a rat was placed individually in the cage and monitoring of the signal was carried out via the attachment of a non-restraining 6-wire flat cable and a female connector, which was connected to an impedance transformer with a gain of 10, located above the cage. The EEG signal was amplified (resulting in a total gain of 10,000) and locally filtered. The EMG signal was amplified as the EEG, (EEG: low filter 1.0 Hz; high 1 KHz, EMG: low filter 30.0 Hz; high 3 KHz). The power spectra analysis was performed for identification of the sleep stages. The behavior of the animals was observed during the experiment (eye movements, ambulation, rearing etc.).
The three classical vigilance-sleep states described in the rat were discriminated on the basis of the cortical EEG and neck EMG, following the classification by Ruigt et al. (Electroencephalography and clinical Neurophysiology, 1989, 73: 52-63). Wakefulness was identified by a low-amplitude and desynchronized EEG with sustained EMG activity. Slow wave sleep (SWS, includes Quiet sleep, deep sleep and Pre-REM) was clearly distinguished by high-voltage delta waves (2-4 Hz) and spindles associated with a […] EMG activity. Pre-REM sleep was characterized by a clear theta rhythm in the EEG, frequently alternating with short lasting, high voltage spindles. REM sleep was characterized by a low-amplitude EEG with a pronounced theta rhythm (5.5-8.5 Hz), a complete loss of muscle tone, and a low voltage EMG. […]

Sprague Dawley rats = experiment: Novelty-Induced Suppressed Feeding (NSF) Test; type: in vivo, rat; details: for Latency (sec) to feed: 60 min before the test
Protocol: The NSF test is used to assess the anti-anxiety effect of a drug [Bodnoff et al. Psychopharmacology 1988, 95(3), 298-307]. Sprague Dawley rats were used in the NSF test. The testing apparatus comprises a brightly lit open area covered with lab chow pellets. Forty-eight hours prior to behavioral testing, all food was removed from the apparatus. Animals treated with compound 5b (40 or 80 mg/kg) were injected 60 min before the test, whereas animals treated with vehicle (DMSO/saline 7:3) or diazepam were injected 45 min before the test. The drugs were administered subcutaneously and the experiments were conducted after 5:30 PM. The latency to feed, defined as chewing the food as opposed to merely sniffing or playing with a pellet, was then recorded (Table 6). The experiment was terminated for those animals that had not begun eating within a period of 360 seconds, which animals were assigned a latency score of 360 seconds. All analyses were conducted using Sigma Stats and SPSS software. The results are expressed as the mean±SEM per n (number) animals tested (*, p<0.01, ANOVA or t test).

## COc1cccc(N(CCNC(C)=O)c2ccccc2)c1 [5b, N-{2-[(3-Methoxyphenyl)-phenylamino]ethyl}acetamide]
[1]
  REM Sleep Duration: 8.66 min and 7.04 min and 13.89 min and 4.96 min and 8.51 min and 11.6 min and 5.61 min and 7.2 min and 11.18 min and 11.76 min and 9.48 min
  REM Sleep Latency: 76.1 min and 62.31 min and 60.92 min and 109.5 min and 86.49 min and 71.16 min and 80.13 min and 101.41 min and 80.26 min and 54.26 min and 43.83 min
  REM Sleep Mean of a Single Episode: 1.237 min and 1.76 min and 1.54 min and 1.65 min and 1.063 min and 1.933 min and 1.402 min and 2.4 min and 2.23 min and 1.68 min and 1.896 min
  REM Sleep Number (episodes): 7 episodes (2×) and 4 episodes (2×) and 9 episodes and 3 episodes (2×) and 8 episodes and 6 episodes and 5 episodes (2×)
  Slow Wave Sleep Duration: 110.29 min and 73.51 min and 87.14 min and 92.65 min and 89.42 min and 80.00 min and 88.47 min and 79.1 min and 85.8 min and 80.84 min and 104.2 min
  Slow Wave Sleep Latency: 15.73 min and 2.73 min and 1.05 min and 11.9 min and 10.85 min and 23.2 min and 25.9 min and 17.62 min and 5.05 min and 25.12 min and 17.24 min
  Slow Wave Sleep Mean of a Single Episode: 5.01 min and 2.53 min and 3 min and 3.3 min and 3.43 min and 4.21 min and 2.6 min and 2.26 min and 6.12 min and 7.34 min and 7.44 min
  Slow Wave Sleep Number (episodes): 22 episodes and 29 episodes (2×) and 28 episodes and 26 episodes and 19 episodes and 34 episodes and 35 episodes and 14 episodes (2×) and 11 episodes
  Wakefulness Duration: 82.38 min and 82.05 min and 88.37 min and 85.99 min and 93.61 min and 83.69 min and 87.41 min and 90.48 min and 61.05 min and 92.11 min and 78.94 min
  Wakefulness Mean of a Single Episode: 3.39 min and 3.54 min and 3.28 min and 2.94 min and 3.56 min and 4.9 min and 2.38 min and 2.75 min and 6.43 min and 14.56 min and 7.54 min
  Wakefulness Number (episodes): 18 episodes (2×) and 26 episodes and 24 episodes and 28 episodes and 23 episodes and 36 episodes and 34 episodes and 13 episodes and 6 episodes and 12 episodes
Sprague Dawley rats; 5b 40 mg/kg s.c.
  Latency (sec) to feed: 106.75 ± 10.13 (P ≦ 0.001)* sec
Sprague Dawley rats; 5b 80 mg/kg s.c.
  Latency (sec) to feed: 115.28 ± 13.89 (P ≦ 0.001)* sec
Sprague Dawley rats; 5b 40 and 80 mg/kg, injected 60 min before the test, vs vehicle
  latency to feed (FIG. 5): decreased latency to feed
